From article PMC11351550, “Synthesis, Cytotoxicity and Antioxidant Activity Evaluation of Some Thiazolyl–Catechol Compounds” (Antioxidants, 2024)
Read-outs that look alike come from different tables or passages of the source.

Legend:
[1] = DPPH radical-scavenging assay; format: biochemical; conditions: 30 min in the dark, 517 nm; read-out: IC50 against DPPH•
Experimental: (§1) The stock solutions of the reference antioxidants (ascorbic acid, Trolox, EDTA-Na2) and compounds 3a–j were prepared by dissolving the solid powders in DMSO, obtaining 2 mM stock solutions. Following this, an additional set of solutions (0.2 mM) for each compound was obtained by dilution with DMSO. Absorption spectra of the tested compounds covering the range from 400 nm to 800 nm were recorded, indicating no absorption peaks near the wavelengths employed in the experiments. All measurements in the presented assays were made against blank samples. To quantify the activity of the compounds 3a–j, for the antiradical assays (DPPH and ABTS) and ferrous ion chelation, IC50 was calculated using Equation (1), while for the electron transfer assays (TAC, RP, FRAP and CUPRAC), the reference number of mole equivalent activity for each compound was calculated using Equation (2). (1) radical scavenging (%)=control absorbance−sample absorbance/control absorbance×100 (2) equivalents of control=sample absorbance/control absorbance
The DPPH˙ (2,2-diphenyl-1-picrylhydrazyl) radical-scavenging assay, initially reported by Brand-Williams et al., relies on transferring a hydrogen atom from the antioxidant substrate being analyzed to the stable violet radical of DPPH˙. This action converts DPPH˙ into a nonradical stable yellow compound. The reduction in absorbance of the DPPH˙ at λ = 517 nm corresponds to the quantity of neutralized reagent. To perform the DPPH assay, we took 50, 75, 100, 125, and 150 µL of each sample from their 0.2 mM stock solutions, then we adjusted the volumes with DMSO to ensure all samples reached a uniform final volume. These solutions were mixed with 1 mL of DPPH reagent and incubated in the dark for 30 min, as presented in literature reports.

[2] = Total Antioxidant Capacity (TAC) assay; format: biochemical; conditions: 95 °C, 1.5 h, 695 nm
Experimental: as §1
The Total Antioxidant Capacity (TAC) assay was conducted following the methodology outlined in our previous publication, which was based on initial reports from the literature. A volume of 10 mL of the reagent (0.6 M H2SO4, 28 mM Na3PO4 and 4 mM (NH4)6Mo7O24) and 1000 µL of the compound and standard solutions dispensed from the 2 mM stock solutions were mixed in sealed glass test tubes and incubated in a water bath at 95 °C for 1.5 h. After cooling the test tubes to room temperature, 1000 µL of each solution was diluted with 1000 µL of water. The absorbance of the solutions was then measured at λ = 695 nm.

[3] = ABTS radical cation decolorization assay; format: biochemical; conditions: 10 min, pH 7.4, 734 nm; read-out: IC50 against ABTS•+
Experimental: as §1
The decolorization assay of the green ABTS^•+ (2,2′-azinobis-(3-ethylbenzothiazoline-6-sulfonic acid) to ABTS, based on the report of Re et al., was conducted following our group’s published report. The chemical stability of the ABTS^•+ reagent prior to use was checked at λ = 734 nm over one hour, ensuring a consistent absorption (approximately equal to 0.7). The reagent was prepared in potassium phosphate buffer (0.1 M, pH = 7.4) and activated overnight using MnO2 [17]. In all cuvettes, we added 100 μL of the tested compound solutions (0.2 mM) in increasing concentrations up to 200 µL and 2000 µL of the ABTS^•+ reagent. The resulting mixtures were thoroughly shaken for 10 min at room temperature, in the absence of light. The optical absorbance of the resulting mixtures was then measured by spectrophotometry at λ = 734 nm.

[4] = system: human pulmonary malignant cells (A549); assay: Alamar Blue cytotoxicity assay, A549 cells; format: cell-based; conditions: for IC50: 48 h exposure, Alamar Blue, read-out: IC50 (±SD) A549; for Selectivity Index: ratio between the calculated IC50 on BJ and A549 cells, 48 h
Experimental: (§2) BJ cells were maintained in Dulbecco’s modified Eagle’s medium (DMEM) with low glucose (1 g/L), while the A549 cells were seeded in DMEM with high glucose (5 g/L). All media were supplemented with 10% fetal bovine serum (FBS) and 1% Penicillin/Streptomycin. […] Cellular media were refreshed every other day. Cells were either subcultured or used in experiments once they reached a confluency of 80–90%.
(§3) The cytotoxicity of the synthesized compounds was evaluated by Alamar Blue (AB) assays performed on both cell lines, A549 and BJ, after a 48 h exposure, as previously reported.
(§4) Briefly, approximately 7000 A549 cells and 4000 normal BJ cells were seeded in 100 µL cellular media in 96-well plates to achieve a confluency of 70–80% at the end of the experiment and left to attach overnight before exposure. […] Post-exposure, the media were removed, and the AB assay was performed, with cells being incubated with a 200 µM solution of resazurin for 4 h. The obtained fluorescence was measured at λexcitation = 530/25; λemission = 590/35.
(§5) The experiments included three biological replicates, each one including three technical replicates. The negative control (NC) consisted of cells exposed to a cell culture medium containing 0.2% DMSO and was used for data normalization (100%).

[5] = system: normal human foreskin fibroblasts (BJ); assay: Alamar Blue cytotoxicity assay, BJ cells; format: cell-based; conditions: for IC50: 48 h exposure, Alamar Blue
Experimental: as §2, §3, §4, §5

[6] = CUPRAC (CUPric-Reducing Antioxidant Capacity) assay; format: biochemical; conditions: 30 min, 450 nm
Experimental: as §1
The electron-donating capacity of compounds was assessed using the CUPRAC (CUPric-Reducing Antioxidant Capacity) method. The protocol for this assay is a modification of the reports of Alam et al., Özyürek et al., and Apak et al.. Volumes of 250 µL of CuCl2 10 mM, 1 mL of ammonium acetate buffer 1 M, and 250 µL of 7.5 mM neocuproine in ethanol were mixed with 125 µL of samples and reference compound solutions (0.2 mM). The mixtures were shaken for 30 min in the dark; after that, their absorbance was determined spectrophotometrically at λ = 450 nm.

[7] = Ferric-Reducing Antioxidant Potential (FRAP) assay; format: biochemical; conditions: pH 3.6, 593 nm
Experimental: as §1
The Ferric-Reducing Antioxidant Potential (FRAP) assay relies on the transfer of an electron from the antioxidant being assessed to Fe^3+, resulting in its conversion to Fe^2+. The resulting Fe^2+ ions are then chelated by 2,4,6-tripyridyl-s-triazine, giving a blue-colored complex, with an absorption maximum at λ = 593 nm. A 500 µL amount of the solutions (0.2 mM) of compounds and reference compounds was mixed with 600 µL FRAP reagent and 1200 µL acetate buffer (0.3 M, pH = 3.6), according to previous reports. The resulting solutions were mixed well in the dark, and their absorbance was measured spectrophotometrically.

[8] = Reducing power (RP) assay; format: biochemical; conditions: 50 °C, 20 min, pH 6.6
Experimental: as §1
In the reducing power (RP) assay, the tested compounds performed the reduction of ferric ions from potassium ferricyanide, forming ferrocyanide, which gives a blue complex. The protocol followed is an adaptation of previously reported methodologies. In glass test tubes, 1000 µL of solutions containing compounds and standards measured from the 0.2 mM stock solutions were mixed with 400 µL of phosphate buffer (0.2 M, pH = 6.6) and 400 µL of K3[Fe(CN)6] solution (1% w/v). The tubes were sealed and incubated for 20 min in a water bath at 50 °C. After cooling to room temperature, 500 µL of trichloroacetic acid (10% w/w) was added to all test tubes The resulting mixtures were left for 0.5 h at room temperature. Subsequently, 250 µL of the resulting solutions were mixed with 140 µL of FeCl3 solution (0.1% w/v) and 1000 µL of distilled water, and the absorbance of the resulting solutions was determined at λ = 695 nm.

[9] = Ferrous ion chelation assay (ferrozine); format: biochemical; set-up: key: - represents negligible activity
Experimental: as §1
To evaluate the ability of compounds to chelate ferrous ions, an assay was performed using an adaptation of Dinis et al.’s initial report. The solutions of the tested compounds (2 mM) were mixed well with 500 µL of FeSO4 (0.125 mM), and 500 µL of ferrozine 0.315 mM. After 10 min, the absorbance of the samples was determined spectrophotometrically at λ = 562 nm. EDTA-Na2 was used as a positive control, due to its exceptional ion chelation properties.

| SMILES | IC50 [1] | TAC Eq Ascorbic Acid [2] | IC50 [3] | IC50 [4] | Selectivity Index [4] | toxicity on BJ cells ([5]; 48 h, result in words) | IC50 [5] | CUPRAC Eq Trolox [6] | FRAP Eq Trolox [7] | RP Eq Ascorbic Acid [8] | RP Eq Trolox [8] | ferrous ion chelation percent ([9]; 0.25 µM) | ferrous ion chelation percent ([9]; 0.5 µM) | ferrous ion chelation percent ([9]; 1 µM) | ferrous ion chelation percent ([9]; 1.5 µM) | ferrous ion chelation percent ([9]; 2 µM) | IC50 ([4]; Homo sapiens, A549) | IC50 ([5]; Homo sapiens, Fibroblast) |
| --- | --- | --- | --- | --- | --- | --- | --- | --- | --- | --- | --- | --- | --- | --- | --- | --- | --- | --- |
| O=C1O[C@H]([C@@H](O)CO)C(O)=C1O [Ascorbic acid, reference compound] | 53.5 µM |  |  |  |  |  |  |  |  |  |  |  |  |  |  |  |  |  |
| Cc1nc(-c2ccc(O)c(O)c2)cs1 [Compound 3a] | 51.3 µM | 0.38 Eq Ascorbic Acid | 12 µM | 31.5 µM | >3.17 | no significant toxicity on BJ cells | > 100 µM | 3.17 Eq Trolox | 0.95 Eq Trolox | 1.73 Eq Ascorbic Acid | 1.44 Eq Trolox | - | - | - | - | - |  |  |
| Oc1ccc(-c2csc(-c3ccccc3)n2)cc1O [Compound 3b] | 50.2 µM | 1.00 Eq Ascorbic Acid | 14 µM | 8.91 µM | 8.82 |  | 78.6 µM | 2.27 Eq Trolox | 1.07 Eq Trolox | 1.60 Eq Ascorbic Acid | 1.33 Eq Trolox | - | - | - | - | - |  |  |
| Oc1ccc(-c2csc(-c3ccc(Cl)cc3)n2)cc1O [Compound 3c] | 47.8 µM | 0.83 Eq Ascorbic Acid | 15.7 µM | 8.16 µM | 4.39 |  | 35.8 µM | 2.38 Eq Trolox | 1.10 Eq Trolox | 1.47 Eq Ascorbic Acid | 1.22 Eq Trolox | - | - | - | - | - |  |  |
| Oc1ccc(-c2csc(-c3ccc(Br)cc3)n2)cc1O [Compound 3d, 4-(2-(4-bromophenyl)thiazol-4-yl)benzene-1,2-diol] | 48.3 µM | 0.71 Eq Ascorbic Acid | 12.6 µM |  | 5.66 |  |  | 2.62 Eq Trolox | 1.09 Eq Trolox | 1.63 Eq Ascorbic Acid | 1.35 Eq Trolox | - | - | - | - | - | 6.08 µM | 34.4 µM |
| Cc1cccc(-c2nc(-c3ccc(O)c(O)c3)cs2)c1 [Compound 3e, 4-(2-(m-tolyl)thiazol-4-yl)benzene-1,2-diol] | 46.8 µM | 0.91 Eq Ascorbic Acid | 13.9 µM |  | 7.23 |  |  | 3.13 Eq Trolox | 1.07 Eq Trolox | 1.64 Eq Ascorbic Acid | 1.37 Eq Trolox | - | - | - | - | - | 6.46 µM | 46.8 µM |
| COc1cc(-c2nc(-c3ccc(O)c(O)c3)cs2)cc(OC)c1OC [Compound 3f, 4-(2-(3,4,5-trimethoxyphenyl)thiazol-4-yl)benzene-1,2-diol] | 54.6 µM | 1.22 Eq Ascorbic Acid | 13.4 µM |  | 9.43 |  |  | 3.05 Eq Trolox | 1.06 Eq Trolox | 1.75 Eq Ascorbic Acid | 1.46 Eq Trolox | - | - | - | - | - | 8.76 µM | 82.6 µM |
| O=C([O-])CN(CCN(CC(=O)[O-])CC(=O)O)CC(=O)O.[Na+].[Na+] [EDTA–Na2, EDTA-Na2, reference compound] |  |  |  |  |  |  |  |  |  |  |  | 47.21% | 55.24% | 73.41% | 86.52% | 96.20% |  |  |
| Cc1c(C)c2c(c(C)c1O)CCC(C)(C(=O)O)O2 (stereo not drawn) [Trolox, reference compound] | 38.1 µM |  | 15.9 µM |  |  |  |  |  |  |  |  |  |  |  |  |  |  |  |
